Assay results as given in patent US8343698B2, “Photoreceptor, method of manufacturing same, image formation method, image forming apparatus, and process cartridge” (Ricoh Company, Ltd., priority 2009, dated 2013).

Test system: salmonella of TA1535
Experiment: Mutation test (Ames test), plate method
Assay type: cell-based
Conditions: strain TA1535, plate method, under metabolic activity condition, 625 to 10,000 micro gram/plate, maximum number of colonies divided by colonies in control solvent, tested on the TMPTA monomer of each example
Excerpt: One time absorption refinement treatment is effective but multiple time absorption refinement treatments are preferable to improve the removal effect of the impurities. A number of methods for use in the present invention of measuring the safety of the radical polymerizable monomer can be used. Ames test (mutagen test) is employed in the present invention.
Ames test is a test in which germs are used. The strain among salmonellas used in the test is histidine auxotroph (his−), which cannot synthesize histidine. In the test, the number of colonies of recoveries from histidine auxotroph (his−) to (his+) which can synthesize histidine again as a result of a test material reacting with the strain is counted to determine the mutation property of the material.
Currently, among these strains, TA1535, TA1537, TA100, TA98 or WP2uvrA—are generally used. When TA1535 is used, radical polymerizable monomers in the market are frequently positive. Therefore, TA1535 test is employed in the present invention.
“Mutation test in Ordinance on Safety and Hygiene—Guideline and GLP— (published by Japan industrial Safety & Health Association)” is referred to with regard to the specific test method.
A mutation test (Ames test) is employed to check the safety in the present invention.
A plate method is adopted as the test method in the present invention.
TA1535 is used as the strain and the test is conducted under the condition of metabolic activity.
Add 250 mg of dimethylsulfoxide (DIMSO) to 250 mg of a radical polymerizable monomer having at least 3 functional groups with no charge transport structure followed by ultrasonic treatment for one minute to prepare a clear solution for the test.
5 kinds of densities (625 micro gram/plate, 1,250 micro gram/plate, 2,500 micro gram/plate, 5,000 micro gram/plate, and 10,000 micro gram/plate) of the radical polymerizable monomer having at least 3 functional groups with no charge transport structure are used. Among these, the quotient (referred to as “colony increase multiple” in the present invention) obtained by dividing the maximum number of the colonies with the number of colonies in the control solvent is used for comparison. The smaller the quotient, the safer the test sample.

Compound | Colony increase multiple | also measured
C=CC(=O)OCC(CC)(COC(=O)C=C)COC(=O)C=C [Comp. 1, trimethylol propane triacrylate] | 3.4 | Colony increase multiple (listed as Comparative Example 1): 3.4
C=CC(=O)OCC(CC)(COC(=O)C=C)COC(=O)C=C [Ex. 1, trimethylol propane triacrylate] | 1.2 | Colony increase multiple (listed as Example 1): 1.2
C=CC(=O)OCC(CC)(COC(=O)C=C)COC(=O)C=C [Ex. 6, trimethylol propane triacrylate] | 2.5 | Colony increase multiple (listed as Example 6): 2.5
C=CC(=O)OCC(CC)(COC(=O)C=C)COC(=O)C=C [Ex. 7, trimethylol propane triacrylate] | 1.9 | Colony increase multiple (listed as Example 7): 1.9
C=CC(=O)OCC(CC)(COC(=O)C=C)COC(=O)C=C [Ex. 9, trimethylol propane triacrylate] | 2.1 | Colony increase multiple (listed as Example 9): 2.1
C=CC(=O)OCC(CC)(COC(=O)C=C)COC(=O)C=C [Comp. 3, trimethylol propane triacrylate] | 2.7 | Colony increase multiple (listed as Comparative Example 3): 2.7
C=CC(=O)OCC(CC)(COC(=O)C=C)COC(=O)C=C [Ex. 2, trimethylol propane triacrylate] | 1.1 | Colony increase multiple (listed as Example 2): 1.1
C=CC(=O)OCC(CC)(COC(=O)C=C)COC(=O)C=C [Ex. 10, trimethylol propane triacrylate] | 1.9 | Colony increase multiple (listed as Example 10): 1.9
C=CC(=O)OCC(CC)(COC(=O)C=C)COC(=O)C=C [Ex. 5, trimethylol propane triacrylate] | 1.4 | Colony increase multiple (listed as Example 5): 1.4
C=CC(=O)OCC(CC)(COC(=O)C=C)COC(=O)C=C [Ex. 12, trimethylol propane triacrylate] | 1.4 | Colony increase multiple (listed as Example 12): 1.4
C=CC(=O)OCC(CC)(COC(=O)C=C)COC(=O)C=C [Ex. 3, trimethylol propane triacrylate] | 1.2 | Colony increase multiple (listed as Example 3): 1.2
C=CC(=O)OCC(CC)(COC(=O)C=C)COC(=O)C=C [Ex. 11, trimethylol propane triacrylate] | 1.4 | Colony increase multiple (listed as Example 11): 1.4
C=CC(=O)OCC(CC)(COC(=O)C=C)COC(=O)C=C [Ex. 8, trimethylol propane triacrylate] | 2.6 | Colony increase multiple (listed as Example 8): 2.6
C=CC(=O)OCC(CC)(COC(=O)C=C)COC(=O)C=C [Ex. 4, trimethylol propane triacrylate] | 1.1 | Colony increase multiple (listed as Example 4): 1.1
C=CC(=O)OCC(CC)(COC(=O)C=C)COC(=O)C=C [Comp. 2, trimethylol propane triacrylate] | 2.7 | Colony increase multiple (listed as Comparative Example 2): 2.7
